Laboratory results taken from patent US20230303540A1 (Merck Sharp & Dohme LLC, priority 2020, published 2023).

Molecular target: GST-tagged truncated human mutant G2019S LRRK2 (Homo sapiens, UniProt Q5S007, G2019S)
Test: LRRK2 G2019S Km ATP LanthaScreen assay
Type: biochemical
Conditions: 134 μM ATP (Km ATP), LRRKtide substrate, mean IC50 values; read-out: LRRK2 pIC50 (converted)
Method: Unless otherwise noted, all reactions are magnetically stirred. Unless otherwise noted, when diethyl ether is used in the experiments described below, it is Fisher ACS certified material and is stabilized with BHT. Unless otherwise noted, “concentrated” and/or “solvent removed under reduced pressure” means evaporating the solvent from a solution or mixture using a rotary evaporator or vacuum pump. Unless otherwise noted, flash chromatography is carried out on a Teledyne Isco (Lincoln, NE), Analogix (Burlington, WI), or Biotage (Stockholm, SWE) automated chromatography system using a commercially available cartridge as the column. Columns may be purchased from Teledyne Isco, Analogix, Biotage, Varian (Palo Alto, CA), or Supelco (Bellefonte, PA) and are usually filled with silica gel as the stationary phase. Reverse phase prep-HPLC conditions, where used, can be found at the end of each experimental section. Aqueous solutions were concentrated on a Genevac (Ipswich, ENG) or by freeze-drying/lyophilization. Unless otherwise noted, all LRRK2 pIC50 data presented in tables refers to the LRRK2 G2019S Km ATP LanthaScreen™ assay (Life Technologies Corp., Carlsbad, CA) that is described in the Biological Assay section.
The IC50 values reported herein were measured as follows.
Biological Assay: LRRK2 Km ATP LanthaScreen™ Assay
The LRRK2 kinase activity reported herein as IC50 values was determined with LanthaScreen™ technology from Life Technologies Corporation (Carlsbad, CA) using GST-tagged truncated human mutant G2019S LRRK2 in the presence of the fluorescein-labeled peptide substrate LRRKtide, also from Life Technologies. The data presented for the Km ATP LanthaScreen™ Assay represents mean IC50 values based on several test results and may have reasonable deviations depending on the specific conditions and reagents used. Assays were performed in the presence of 134 μM ATP (Km ATP). Upon completion, the assay was stopped and phosphorylated substrate detected with a terbium (Tb)-labeled anti-pERM antibody (cat. no. PV4898). The compound dose response was prepared by diluting a 10 mM stock of compound to a maximum concentration of 9.99 μM in 100% dimethylsulfoxide followed by custom fold serial dilution in dimethylsulfoxide nine times. Twenty nanoliters of each dilution was spotted via a Labcyte Echo onto a 384-well black-sided plate (Corning 3575) followed by 15 μl of a 1.25 nM enzyme solution in 1× assay buffer (50 mM Tris pH 8.5, 10 mM MgCl2, 0.01% Brij-35, 1 mM EGTA, 2 mM dithiothreitol, 0.05 mM sodium orthovanadate). Following a 15-minute incubation at room temperature, the kinase reaction was started with the addition of 5 μl of 400 nM fluorescein-labeled LRRKtide peptide substrate and 134 μM ATP solution in 1× assay buffer. The reaction was allowed to progress at ambient temperature for 90 minutes. The reaction was then stopped by the addition of 20 μl of TR-FRET Dilution Buffer (Life Technologies, Carlsbad, CA) containing 2 nM Tb-labeled anti-phospho LRRKtide antibody and 10 mM EDTA (Life Technologies, Carlsbad, CA). After an incubation of 1 hour at room temperature, the plate was read on an EnVision multimode plate reader (Perkin Elmer, Waltham, MA) with an excitation wavelength of 337 nm (Laser) and a reading emission at both 520 and 495 nm. Compound IC50s were interpolated from nonlinear regression best fits of the log of the final compound concentration, plotted as a function of the 520/495-nm emission ratio using Activity base. Abase uses a 4 parameter (4P) logistic fit based on the Levenberg-Marquardt algorithm.

SMILES	IC50 [nM]
OC1CN(c2cc3nc(Nc4cnn(CC(F)F)c4Cl)ncc3cc2Cl)C1 [Ex-1.18, 1-(6-chloro-2-{[5-chloro-1-(2,2-difluoroethyl)-1H-pyrazol-4-yl]amino}quinazolin-7-yl)azetidin-3-ol]	18.9
Cn1ncc(Nc2ncc3cc(Cl)c(N4CCN(C5(C)COC5)CC4)cc3n2)c1C(F)(F)F [Ex-4.15, 6-chloro-7-[4-(3-methyloxetan-3-yl)piperazin-1-yl]-N-[1-methyl-5-(trifluoromethyl)-1H-pyrazol-4-yl]quinazolin-2-amine]	19.3
CC1(Cn2ncc(Nc3ncc4cc(Cl)c(N5CCN(C6(C)COC6)CC5)cc4n3)c2Cl)COC1 [Ex-4.52, 6-chloro-N-{5-chloro-1-[(3-methyloxetan-3-yl)methyl]-1H-pyrazol-4-yl}-7-[4-(3-methyloxetan-3-yl)piperazin-1-yl]quinazolin-2-amine]	1.89
C[C@H]1COC(=O)N1c1ccc2cnc(Nc3cnn(C4CCN(C5COC5)CC4F)c3Cl)nc2c1 (stereo in doubt) [Ex-7.3, (4S)-3-[2-({5-chloro-1-[(3S,4S)-3-fluoro-1-(oxetan-3-yl)piperidin-4-yl]-1H-pyrazol-4-yl}amino)quinazolin-7-yl]-4-methyl-1,3-oxazolidin-2-one]	0.976
CC1(n2ncc(Nc3ncc4cc(Cl)c(N5CCN(C6COC6)CC5)cc4n3)c2Cl)CC1 [Ex-3.22, 6-chloro-N-[5-chloro-1-(1-methylcyclopropyl)-1H-pyrazol-4-yl]-7-[4-(oxetan-3-yl)piperazin-1-yl]quinazolin-2-amine]	0.954
CC1CN(C2COCC2O)CCN1c1cc2nc(Nc3cnn(C4CC4)c3Cl)ncc2cc1Cl (single isomer, unassigned) [Ex-12.8, (3S,4S) or (3R, 4R)-4-((R) or (S)-4-(6-chloro-2-((5-chloro-1-cyclopropyl-1H-pyrazol-4-yl)amino)quinazolin-7-yl)-3-methylpiperazin-1-yl)tetrahydrofuran-3-ol]	0.088
CNc1cc2nc(Nc3cnn(C4CCN(C5(C)COC5)CC4)c3Cl)ncc2cc1Cl [Ex-3.44, 6-chloro-N~2~-{5-chloro-1-[1-(3-methyloxetan-3-yl)piperidin-4-yl]-1H-pyrazol-4-yl}-N~7~-methyl-quinazoline-2,7-diamine]	19.5
CC(C)Nc1cc2nc(Nc3cnn(C4CCN(C5(C)COC5)CC4)c3Cl)ncc2cc1Cl [Ex-3.46]	15
Cc1cc2cnc(Nc3cnn(C45CC(C4)C5)c3Cl)nc2cc1N1CCN(C2(C)COCC2O)CC1 (single isomer, unassigned) [Ex-13.4, (3S,4S) or (3R, 4R)-4-(4-(2-((1-(bicyclo[1.1.1]pentan-1-yl)-5-chloro-1H-pyrazol-4-yl)amino)-6-methylquinazolin-7-yl)piperazin-1-yl)-4-methyltetrahydrofuran-3-ol]	0.267
C[C@H]1CN(c2cc3nc(Nc4cnn(C5(C)CC5)c4Cl)ncc3cc2Cl)CCN1C1COC1 [Ex-4.41, 6-chloro-N-[5-chloro-1-(1-methylcyclopropyl)-1H-pyrazol-4-yl]-7-[(3S)-3-methyl-4-(oxetan-3-yl)piperazin-1-yl]quinazolin-2-amine]	1.91
CC(C)(O)Cn1cc(Nc2ncc3cc(Cl)c(N4CCN(C5(C)COC5)CC4)cc3n2)cn1 [Ex-4.59, 1-[4-({6-chloro-7-[4-(3-methyloxetan-3-yl)piperazin-1-yl]quinazolin-2-yl}amino)-1H-pyrazol-1-yl]-2-methylpropan-2-ol]	5.26
O[C@H]1COCC12CCN(c1cc3nc(Nc4cnn(C5CC5)c4Cl)ncc3cc1Cl)CC2 [Ex-3.2]	1.06
Clc1cc2cnc(Nc3cnn(C4CC4)c3Cl)nc2cc1N1C[C@@H]2C[C@H]1CN2C1COC1 [Ex-1.33, 6-chloro-N-(5-chloro-1-cyclopropyl-1H-pyrazol-4-yl)-7-[(1S,4S)-5-(oxetan-3-yl)-2,5-diazabicyclo[2.2.1]heptan-2-yl]quinazolin-2-amine]	26.1
